According to patent publication US20240325548A1, “DYNAMIC BIOACTIVE SCAFFOLDS AND THERAPEUTIC USES THEREOF AFTER CNS INJURY” (Northwestern University, priority 2021, published 2024):

Tests used:
hNPCs = test: hNPC attachment, proliferation and phenotype on co-assembled PA coatings (EdU, SOX-2, PAX6); format: cell-based, human
Text: Neural progenitor cells (NPCs) were differentiated from human embryonic stem cells HUES 64 (Harvard University) (see FIG. 2C). In short, 70% confluent stem cell cultures grown in Matrigel (Thermo Fisher) coated plates with mTESR medium (STEMCELL Technologies), were switched to N2B27 medium (50% DMEM: F12, 50% Neurobasal, supplemented with NEAA, Glutamax, N2 and B27; Gibco) containing dual SMAD inhibitors (SB431542, DNSK International and LDN-193189, Tocris) for 12 days to induce the generation of neural progenitors. Neuralization was enhanced by supplementing medium with laminin from day 5 to 12. Next, neural rosettes were dissociated with neural rosette selection reagent (STEMCELL Technologies) to obtain NPCs, which are expanded in N2B27 (Gibco) medium supplemented with bFGF (Millipore). For experimentation in the different PA platforms, NPCs were dissociated with Accutase (Innovative Cell technology), and cultured in the distinct platforms with DMEM: F12+N2+B27 medium with hyclone penicillin-streptomycin (GE Healthcare) and ascorbic acid (0.2 μg/mL; Sigma-Aldrich).
For IKVAV PA treatments, hNPCs were cultured on ornithine coatings (German Glass, Chemglass Life Science) in 6 well and 24 well plates at a density of 500,000 cells/well and 80,000 cells/well respectively. hNPCs were treated with […] of IKVAV PAs ([PA]=6 mM, [KCl]=3 mM, [NaCl]=150 mM) or recombinant laminin protein (10 mg/mL) in solution. IKVAV PA2 and IKVAV PA5 were also mixed with 5 mM CaCl2) at a ratio PA:CaCl2) 6:1 to treat hNPCs. For 2D experiments, hNPCs were cultured on the different IKVAV PAs or laminin coatings in 6 well and 24 well plates at densities mentioned above. For co-assembled experiments, hNPCs were cultured on the different co-assembled PA coatings in 6 well and 24 well plates at a density of 400,000 cells/well and 50,000 cells/well respectively.
hNPCs were fed 4 times a week with DMEM: F12+N2^+B27 medium with hyclone penicillin-streptomycin and ascorbic acid. After 24 h, 72 h 1- or 2-weeks in vitro, cell lysates were harvested or fixed for WB or ICC, respectively. Three replicates per condition and at least three independent experiments were carried out for all conditions investigated.
For the hNPCs proliferation assay, 2 μM of the thymidine analog 5-ethynyl-2′-deoxyuridine (EdU, Thermo Fisher) was incorporated into the culture medium for 24 h. Cells were fixed at the indicated time points in 4% paraformaldehyde (PFA) for 15 min at RT. After fixation, samples were washed in PBS twice and then stained with Click-iT™ EdU Cell Proliferation Kit containing 11 mM CuSO4 (from 50 mM stock) and 1 μg/mL of Alexa Fluor-555 azide (from 0.5 mg/mL, Thermo Fisher) for 30 minutes at RT in the dark. The staining cocktail was then removed, and cells were washed with PBS. Then, hNPCs were counterstained with anti-rabbit SOX-2 antibody following the immunofluorescence protocol described below and 4′, 6-diamidino-2-phenylindole (DAPI, Thermo Fisher) at 5 μg/mL in PBS for 20 min at RT. The cells were then washed with PBS and mounted with Immu-Mount (Fisher Scientific) for imaging.
For immunofluorescence, fixed primary cultures or free-floating tissue sections (40 m Thick) were incubated in blocking buffer containing 0.02% Triton-X (Sigma-Aldrich), 1% NHS (Gibco) and PBS 1× (Gibco). Samples were incubated with primary antibodies over night at 4° C. Alexa-488, Alexa-555 and/or Alexa-647 (1:500, Thermofisher) were used as secondary antibodies. DAPI (1:500, Thermofisher) was used to stain nuclei. […]

[1] = tested on: murine model of severe spinal cord injury (SCI); test: Hindlimb locomotor evaluation after SCI (BMS, footprint analysis); format: in vivo, mouse; settings: three weeks post-injury
Procedure: All experiments were conducted at the Simpson Querrey Institute at Northwestern University. 182 CD1 mice (Charles River) were subjects of this study (N=38 Sham, N=38 IKVAV PA2 alone, N=38 IKVAV PA2+FGF2 PA1, N=38 IKVAV PA2+FGF2 PA2, N=12 IKVAV PA1, N=12 Backbone PA, N=6 IKVAV PA4). The age of animals used in the study was in the range of 10-16 weeks. 8 independent in vivo experiments were carried out (injury+PA injection) and each of the 8 experiments had animals of the exact same age which were injected with at least the 4 main treatment groups: Sham, IKVAV PA2 alone, IKVAV PA2+FGF2 PA1, and IKVAV PA2+FGF2 PA2. Animals were anesthetized using 2.5% isoflurane gas with oxygen. […]
Mice that passed this inclusion criterion were randomized into experimental groups for PA injection and were thereafter evaluated blind to their experimental condition.
PAs (dissolved in sterile NaCl 0.9% solution at 1 wt %) were injected 24 h after SCI using a glass capillary micropipette (Sutter Instruments, Novato, CA) (outer diameter, 100 m) coated with Sigmacote (Sigma-Aldrich) to reduce surface tension as described elsewhere (19). […] The micropipette was lowered to a depth of 750 m measured from the dorsal surface of the cord, and 4-6 μL of the diluted amphiphile solution was injected at 1 L/min. […]
The motor function was evaluated with the locomotor open-field rating scale on the Basso Mouse Scale (BMS). […]

## C16-A2G2E4GIKVAV [IKVAV PA2]
hNPCs
  percentage of proliferating EdU+ and SOX2+ cells: decreased significantly
hNPCs; one week later
  percentage of neuronal progenitor cells PAX6+: increased percentage
[1]
  BMS open field locomotor score: 4.3±0.5
